Results as given in patent US4665157A, “Peptide antagonists of neurokinin B” (priority 1985, dated 1987).
Where a SMILES comes first, the peptide text is derived from it. [ ]: non-standard residue; d: D form. Nle = CCCC[C@H](N)C(=O)O

What was measured:
[1] = tested on: Neurokinin B-induced scratching; assay: Tachykinin-induced mouse scratching assay: antagonism of Neurokinin B-induced scratching; format: in vivo, Male, Swiss CD-1 mice; design: unit not given beside the values; settings: dose of antagonist inhibiting NK-induced scratching by 50%; intrathecal, injected simultaneously with SD90 dose of NK; parentheses = 95% fiducial limits
Excerpt: The tachykinin-induced mouse scratching assay was used to evaluate the ability of the Neurokinin B analogs of the invention to act in vivo as antagonists.
Male, Swiss CD-1 mice (Charles River, Kingston, NY) weighing between 18-24 g were used in all experiments. They were allowed food and water ad libitum and each animal was used only once.
Following the intrathecal injection of agonist, the animals were placed into individual plexiglass observation chambers and observed for five min for the occurrence of the characteristic reciprocal hind-limb scratching response (caudallyn directed scratching of the body interchangeably by the hind limbs). Animals were scored as either responders or non-responders. In order to assess the ability and specificity of the Neurokinin B analogs to block the scratching produced by substance P, Neurokinin B and bombesin, varying doses of the antagonists were injected simultaneously with that dose of agonist causing 90% of the animals to scratch. […] In some instances, the percent inhibitions of scratching for a given dose of agonist was compared to control values by the Fishers Exact Test.

[2] = tested on: bombesin-induced scratching; format: in vivo, Male, Swiss CD-1 mice; settings: % inhibition of scratching at 20 μg antagonist, intrathecal
Excerpt: (§1) The tachykinin-induced mouse scratching assay was used to evaluate the ability of the Neurokinin B analogs of the invention to act in vivo as antagonists. This test was chosen since scratching is well documented to be a reproducible, characteristic central effect of tachykinin agonists which can be blocked by tachykinin antagonists, see Hylden and Wilcox, Brain Res. 217: 212 (1981); Piercey et al., Science 214: 1361, (1981); Vaught et al., Eur. Journal Pharmacol. 103: 355, (1984).
(§2) Male, Swiss CD-1 mice (Charles River, Kingston, NY) weighing between 18-24 g were used in all experiments. They were allowed food and water ad libitum and each animal was used only once. Substance P, Neurokinin B, bombesin (a compound which induces scratching but is not a tachykinin), [D-Pro^2,D-Trp^7,9 ]-Substance P(1-11) and the product of Example 1 were dissolved in 0.01N acetic acid. The products of Examples 2, 3 and 4 were dissolved in 0.1N NaOH; DMSO and H2 O (1:1:4.7 v/v). These vehicles, injected intrathecally to mice, produced no overt behavioral effects.
To determine the activity of substance P, Neurokinin B and bombesin, these agonists were injected intrathecally (max. volume […]) according to the method of Hylden et al. described in Eur. Journal Pharmacol. 67: 313 (1980). […] Animals were scored as either responders or non-responders. […]

[3] = tested on: substance P-induced scratching; format: in vivo, Male, Swiss CD-1 mice; design: ID50 vs SP: unit not given beside the values; settings: for ID50 vs SP: dose of antagonist inhibiting SP-induced scratching by 50%, intrathecal, injected simultaneously with SD90 dose of SP, parentheses = 95% fiducial limits; for % inhibition of SP-induced scratching: mouse, in vivo
Excerpt: as §1, §2
To determine the activity of substance P, Neurokinin B and bombesin, these agonists were injected intrathecally (max. volume […]) according to the method of Hylden et al. described in Eur. Journal Pharmacol. 67: 313 (1980). Following the intrathecal injection of agonist, the animals were placed into individual plexiglass observation chambers and observed for five min for the occurrence of the characteristic reciprocal hind-limb scratching response (caudallyn directed scratching of the body interchangeably by the hind limbs). Animals were scored as either responders or non-responders. In order to assess the ability and specificity of the Neurokinin B analogs to block the scratching produced by substance P, Neurokinin B and bombesin, varying doses of the antagonists were injected simultaneously with that dose of agonist causing 90% of the animals to scratch. The ID50 (that dose of antagonist which inhibits scratching produced by an agonist by 50%) was then calculated by probit analysis. In some instances, the percent inhibitions of scratching for a given dose of agonist was compared to control values by the Fishers Exact Test. The following results were obtained in the Scratching Assay: […]

[4] = Mouse Hot Plate Assay (analgesia); format: in vivo, mice; settings: for ED50: dose producing analgesia in 50% of animals, hot plate 48° C., parentheses = 95% fiducial limits; for ED50 / Duration of Action: intrathecal; for Duration of Action: duration of the analgesic effect; for Onset of Action: time to peak analgesic activity following intrathecal injection
Method: Analgesic Utility: The Mouse Hot Plate Assay was used to determine the activity of compounds of the invention as analgesics. The compound vehicles were as described above in the Scratching Assay.
Mouse Hot Plate Assay: The hot plate assay was used to assess analgesic potency, see Vaught and Chipkin, Eur. Journal. Pharmacol. 79, 167-173 (1982) and references therein. In these experiments the hot plate apparatus (Technilab Instruments, Inc.) was maintained at 48±0.05° C. The response measure was the time interval between the animal being placed on the heated surface and licking or shaking its hindpaw. Test drug was administered intrathecally and at appropriate times following drug administration the reaction times redetermined. A reaction time for drug-treated animals greater than three standard deviations from the mean of the control reaction times for all the animals in the group was the criterion for an analgesic response. At least three doses with 10 animals per dose were used to construct dose response curves.

Compound: [D-Pro^2,D-Trp^7,9 ]-Substance P(1-11) [[D-Pro^2,D-TrP^7,9]-SP(1-11), reference compound]
- ID50 vs. NK [1]: 2.6(0.8-4.8)
- % Inhibition of Bombesin [2]: 20%
- ID50 vs SP [3]: 4.6(2.9-6.9)
- ED50 [4]: 5.5(3.2-6.8) μg
- Duration of Action [4]: ≤ 15 min
- Onset of Action [4]: 5 min

Compound: CCCC[C@H](NC(=O)[C@H](CC(C)C)NC(=O)[C@@H](Cc1c[nH]c2ccccc12)NC(=O)[C@@H](NC(=O)[C@@H](Cc1c[nH]c2ccccc12)NC(=O)[C@H](Cc1ccccc1)NC(=O)[C@@H](CC(=O)O)NC(=O)[C@H](Cc1c[nH]cn1)NC(=O)[C@H]1CCCN1C(=O)[C@H](N)CC(=O)O)C(C)C)C(N)=O [Example 3, D-Asp^1 -D-Pro^2 -His^3 -D-Asp^4 -Phe^5 -D-Trp^6 -Val^7 -D-Trp^8 -Leu^9 -Nle^10 -NH2] (H-[dD][dP]H[dD]F[dW]V[dW]L[Nle]-NH2)
- % inhibition of SP-induced scratching [3]: 70%
- ED50 [4]: 10.4(7.7-13.2) μg
- Duration of Action [4]: ≤ 90 min
- Onset of Action [4]: 20 min

Compound: CCCC[C@H](NC(=O)[C@H](CC(C)C)NC(=O)[C@@H](Cc1c[nH]c2ccccc12)NC(=O)[C@@H](NC(=O)[C@@H](Cc1c[nH]c2ccccc12)NC(=O)[C@H](Cc1ccccc1)NC(=O)[C@@H](CC(=O)O)NC(=O)[C@H](Cc1c[nH]cn1)NC(=O)[C@H]1CCCN1C(=O)[C@@H](N)CC(=O)O)C(C)C)C(N)=O [Example 4, Asp^1 -D-Pro^2 -His^3 -D-Asp^4 -Phe^5 -D-Trp^6 -Val^7 -D-Trp^8 -Leu^9 -Nle^10 -NH2] (H-D[dP]H[dD]F[dW]V[dW]L[Nle]-NH2)
- % inhibition of SP-induced scratching [3]: 50%
- ED50 [4]: 10.0(5.5-18.2) μg
- Duration of Action [4]: ≤ 60 min
- Onset of Action [4]: 20 min

Compound: CCCC[C@H](NC(=O)[C@H](CC(C)C)NC(=O)[C@@H](Cc1c[nH]c2ccccc12)NC(=O)[C@@H](NC(=O)[C@@H](Cc1c[nH]c2ccccc12)NC(=O)[C@H](Cc1ccccc1)NC(=O)[C@H](CC(=O)O)NC(=O)[C@H](Cc1c[nH]cn1)NC(=O)[C@H]1CCCN1C(=O)[C@H](N)CC(=O)O)C(C)C)C(N)=O [Example 2, D-Asp^1 -D-Pro^2 -His^3 -Asp^4 -Phe^5 -D-Trp^6 -Val^7 -D-Trp^8 -Leu^9 -Nle^10 -NH2] (H-[dD][dP]HDF[dW]V[dW]L[Nle]-NH2)
- % inhibition of SP-induced scratching [3]: 90%
- ED50 [4]: 7.5(5.9-9.5) μg
- Duration of Action [4]: 120 min
- Onset of Action [4]: 20 min

Compound: CCCC[C@H](NC(=O)[C@H](CC(C)C)NC(=O)[C@@H](Cc1c[nH]c2ccccc12)NC(=O)[C@@H](NC(=O)[C@@H](Cc1c[nH]c2ccccc12)NC(=O)[C@H](Cc1ccccc1)NC(=O)[C@H](CC(=O)O)NC(=O)[C@H](Cc1c[nH]cn1)NC(=O)[C@H]1CCCN1C(=O)[C@@H](N)CC(=O)O)C(C)C)C(N)=O [Example 1, Asp^1 -D-Pro^2 -His^3 -Asp^4 -Phe^5 -D-Trp^6 -Val^7 -D-Trp^8 -Leu^9 -Nle^10 -NH2] (H-D[dP]HDF[dW]V[dW]L[Nle]-NH2)
- ID50 vs. NK [1]: 0.6(0.3-1.2)
- ID50 vs SP [3]: 3.4(2.3-5.2)
- ED50 [4]: 4.6(3.0-6.4) μg
- Duration of Action [4]: ≥ 90 min
- Onset of Action [4]: 20 min
